Read-outs that look alike come from different tables or passages of the source.
Experiments:
Type in all cases: cell-based
M1 muscarinic receptor = target: T1, M1 muscarinic receptor (Homo sapiens, UniProt P11229); assay: Functional mobilization of intracellular calcium (FLIPR) in CHO cells expressing M1; details: for EC50: CHO cells expressing M1, FLIPR calcium; for Emax: CHO; for M1 Activity: CHO cells expressing M1, FLIPR calcium assay
T1 construct: expressed in transfected cells; host or cells: CHO (M1-CHO)
T1 sequence (P11229 1-460): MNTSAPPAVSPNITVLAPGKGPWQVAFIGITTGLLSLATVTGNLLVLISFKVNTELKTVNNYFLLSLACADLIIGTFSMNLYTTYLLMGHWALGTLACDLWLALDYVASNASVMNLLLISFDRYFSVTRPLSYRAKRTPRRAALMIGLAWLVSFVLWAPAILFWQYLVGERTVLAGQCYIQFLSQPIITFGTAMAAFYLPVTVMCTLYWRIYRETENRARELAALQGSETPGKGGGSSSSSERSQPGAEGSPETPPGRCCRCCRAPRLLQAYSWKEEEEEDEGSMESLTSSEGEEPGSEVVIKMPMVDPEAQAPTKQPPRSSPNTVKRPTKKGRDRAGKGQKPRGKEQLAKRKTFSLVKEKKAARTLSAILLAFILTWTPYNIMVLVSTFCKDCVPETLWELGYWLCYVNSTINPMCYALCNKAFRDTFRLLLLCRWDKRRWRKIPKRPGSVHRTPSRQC
Outline: (§1)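 Recombinant CHO cells loaded with Fluo-3 AM or Calcium 3 dye in pH 7.4 buffer containing 1 mM probenecid, with 0.5% final DMSO. For agonism, compound is added directly. For inhibition, it is preincubated 15 min, or co-applied, before carbachol at EC80. FLIPR fluorescence (ex 488, em 540 nm) is recorded for 60 s.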

M2 muscarinic receptor = target: T2, M2 muscarinic receptor (Homo sapiens, UniProt P08172); assay: Functional mobilization of intracellular calcium (FLIPR) in CHO cells expressing M2; details: for EC50: CHO cells expressing M2, FLIPR calcium; for Emax: CHO; for M2 Activity: CHO cells expressing M2, FLIPR calcium assay
T2 construct: expressed in transfected cells; host or cells: CHO (M2-CHO)
T2 sequence (P08172 1-466): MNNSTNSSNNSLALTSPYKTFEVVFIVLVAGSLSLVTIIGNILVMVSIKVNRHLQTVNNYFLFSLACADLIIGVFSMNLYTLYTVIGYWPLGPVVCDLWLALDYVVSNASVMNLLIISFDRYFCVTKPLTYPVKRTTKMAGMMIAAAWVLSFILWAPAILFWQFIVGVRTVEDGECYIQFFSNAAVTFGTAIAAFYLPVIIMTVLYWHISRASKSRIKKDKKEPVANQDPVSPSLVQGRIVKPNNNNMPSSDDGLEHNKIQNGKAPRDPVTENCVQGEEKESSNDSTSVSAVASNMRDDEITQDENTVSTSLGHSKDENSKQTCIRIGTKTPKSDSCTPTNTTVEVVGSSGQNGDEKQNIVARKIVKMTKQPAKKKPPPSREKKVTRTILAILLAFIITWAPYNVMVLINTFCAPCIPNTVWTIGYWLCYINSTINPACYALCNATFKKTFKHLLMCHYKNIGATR
Outline: as §1

M3 muscarinic receptor = target: T3, M3 muscarinic receptor (Homo sapiens, UniProt P20309); assay: Functional mobilization of intracellular calcium (FLIPR) in CHO cells expressing M3; details: for EC50: CHO cells expressing M3, FLIPR calcium; for Emax: CHO; for M3 Activity: CHO cells expressing M3, FLIPR calcium assay
T3 construct: expressed in transfected cells; host or cells: CHO (M3-CHO)
Outline: as §1

M4 muscarinic receptor = target: T4, M4 muscarinic receptor (Homo sapiens, UniProt P08173); assay: Functional mobilization of intracellular calcium (FLIPR) in CHO cells expressing M4; details: for EC50: CHO cells expressing M4, FLIPR calcium; for Emax: CHO; for M4 Activity: CHO cells expressing M4, FLIPR calcium assay
T4 construct: expressed in transfected cells; host or cells: CHO (M4-CHO)
T4 sequence (P08173 1-479): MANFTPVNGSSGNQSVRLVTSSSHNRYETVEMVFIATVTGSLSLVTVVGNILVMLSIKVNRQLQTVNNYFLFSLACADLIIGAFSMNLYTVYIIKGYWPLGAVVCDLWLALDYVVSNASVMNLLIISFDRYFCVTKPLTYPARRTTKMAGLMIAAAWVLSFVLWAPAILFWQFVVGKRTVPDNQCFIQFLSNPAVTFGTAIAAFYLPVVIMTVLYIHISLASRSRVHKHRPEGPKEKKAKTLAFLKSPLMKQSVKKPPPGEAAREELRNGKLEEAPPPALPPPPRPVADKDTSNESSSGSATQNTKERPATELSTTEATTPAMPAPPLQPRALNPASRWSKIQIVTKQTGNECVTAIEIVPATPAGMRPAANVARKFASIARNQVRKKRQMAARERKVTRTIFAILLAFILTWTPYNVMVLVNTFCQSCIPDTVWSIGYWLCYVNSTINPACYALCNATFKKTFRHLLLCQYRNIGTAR
Outline: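 Calcium flux is read on FLIPR over 60 sec at 488/540 nm in muscarinic-receptor CHO lines. Antagonist mode adds carbachol at EC80 after 15 min compound preincubation or with simultaneous co-application. Agonist mode adds compound alone. Cells carry Fluo-3 or Calcium 3 dye in probenecid-containing pH 7.4 buffer, 0.5% DMSO final.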

[1] = 100% = maximum response obtained with the Carbachol control, read-out: M1 Efficacy
[2] = 100% = maximum response obtained with the Carbachol control, read-out: M2 Efficacy
[3] = 100% = maximum response obtained with the Carbachol control, read-out: M3 Efficacy
[4] = 100% = maximum response obtained with the Carbachol control, read-out: M4 Efficacy
[5] = 100% efficacy = maximum response obtained with the Carbachol control

T3 sequence (P20309 whole entry): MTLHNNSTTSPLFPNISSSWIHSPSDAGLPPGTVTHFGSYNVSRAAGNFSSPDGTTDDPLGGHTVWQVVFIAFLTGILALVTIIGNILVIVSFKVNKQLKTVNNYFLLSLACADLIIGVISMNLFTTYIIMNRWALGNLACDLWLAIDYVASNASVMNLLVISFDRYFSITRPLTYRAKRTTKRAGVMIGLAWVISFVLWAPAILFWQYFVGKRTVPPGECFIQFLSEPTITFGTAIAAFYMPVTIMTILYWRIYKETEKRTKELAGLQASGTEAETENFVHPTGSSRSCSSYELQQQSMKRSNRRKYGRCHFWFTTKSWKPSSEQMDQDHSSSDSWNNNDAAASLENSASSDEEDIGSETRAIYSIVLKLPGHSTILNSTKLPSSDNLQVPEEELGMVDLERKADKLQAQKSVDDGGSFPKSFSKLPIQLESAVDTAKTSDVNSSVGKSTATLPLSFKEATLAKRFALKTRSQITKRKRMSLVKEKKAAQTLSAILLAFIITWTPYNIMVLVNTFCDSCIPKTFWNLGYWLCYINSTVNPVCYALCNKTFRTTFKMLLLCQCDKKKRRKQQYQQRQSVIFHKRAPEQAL

Row | SMILES | EC50 (M1 muscarinic receptor) [µM] | Emax (M1 muscarinic receptor; [1]) [%] | EC50 (M2 muscarinic receptor) [µM] | Emax (M2 muscarinic receptor; [2]) [%] | EC50 (M3 muscarinic receptor) [µM] | Emax (M3 muscarinic receptor; [3]) [%] | EC50 (M4 muscarinic receptor) [µM] | Emax (M4 muscarinic receptor; [4]) [%] | M1 Activity (M1 muscarinic receptor) | Emax (M1 muscarinic receptor; [5]) [%] | M2 Activity (M2 muscarinic receptor) | Emax (M2 muscarinic receptor; [5]) [%] | M3 Activity (M3 muscarinic receptor) | Emax (M3 muscarinic receptor; [5]) [%] | M4 Activity (M4 muscarinic receptor) | Emax (M4 muscarinic receptor; [5]) [%]
1 | CCn1cc(C(=O)N[C@H]2CCC3(CCN(CCC(C)(C)C)CC3)c3ccccc32)cn1 [compound 115] | < 2 | 25 to 100 | < 2 | 25 to 100 | > 5 | < 25 | < 2 | 25 to 100 | – | – | – | – | – | – | – | –
2 | CCC(=O)N[C@@H]1CCC2(CCN(CCC(C)(C)C)CC2)c2ccccc21 [compound 62] | > 5 | < 25 | > 5 | < 25 | > 5 | < 25 | < 2 | 25 to 100 | – | – | – | – | – | – | – | –
3 | CC(C)(C)CCN1CCC2(CC1)CC(F)(F)C(=O)c1ccccc12 [compound 117] | < 2 | 25 to 100 | < 2 | 25 to 100 | > 5 | < 25 | < 2 | 25 to 100 | – | – | – | – | – | – | – | –
4 | CC(=O)N[C@H]1CC2(CCN(CC(N)=O)CC2)c2ccccc21 [compound 229] | – | – | – | – | – | – | – | – | + (activity was measured to be greater than 5.0 μM) | < 25 | + (activity was measured to be greater than 5.0 μM) | < 25 | + (activity was measured to be greater than 5.0 μM) | < 25 | + (activity was measured to be greater than 5.0 μM) | < 25
5 | CC(C)(C)CCN1CCC2(CC1)C[C@H](NC(=O)C1CCCC1)c1ccccc12 [compound 225] | – | – | – | – | – | – | – | – | + (activity was measured to be greater than 5.0 μM) | < 25 | + (activity was measured to be greater than 5.0 μM) | < 25 | + (activity was measured to be greater than 5.0 μM) | < 25 | + (activity was measured to be greater than 5.0 μM) | < 25
6 | CC(=O)N1CCC(C(=O)N[C@H]2CCC3(CCN(CCC(C)(C)C)CC3)c3cc(F)ccc32)CC1 [compound 81] | 2 to 5 | 25 to 100 | > 5 | < 25 | > 5 | < 25 | < 2 | 25 to 100 | – | – | – | – | – | – | – | –
7 | CC(=O)N1CCC[C@@H]1C(=O)N[C@@H]1CCC2(CCN(CCC(C)(C)C)CC2)c2ccccc21 [compound 107] | 2 to 5 | 25 to 100 | 2 to 5 | < 25 | > 5 | < 25 | < 2 | 25 to 100 | – | – | – | – | – | – | – | –
8 | CCN(C(=O)CCNC(C)=O)[C@H]1CCC2(CCN(CCC(C)(C)C)CC2)c2ccccc21 [compound 187] | – | – | – | – | – | – | – | – | +++ (activity was measured to be less than 2.0 μM) | 25 to 100 | + (activity was measured to be greater than 5.0 μM) | < 25 | + (activity was measured to be greater than 5.0 μM) | < 25 | +++ (activity was measured to be less than 2.0 μM) | 25 to 100
9 | CC(=O)NC1CCC2(CCN(C(=O)OC(C)(C)C)CC2)c2ccccc21 (stereo not shown) [compound 260] | – | – | – | – | – | – | – | – | – | < 25 | – | < 25 | – | < 25 | – | < 25
10 | CCC(CC)(CCC#N)CN1CCC2(CC1)C[C@H](NC(C)=O)c1ccccc12 [compound 269] | – | – | – | – | – | – | – | – | + (activity was measured to be greater than 5.0 μM) | 25 to 100 | + (activity was measured to be greater than 5.0 μM) | < 25 | + (activity was measured to be greater than 5.0 μM) | < 25 | ++ (activity was measured to be from 2.0 μM to 5.0 μM) | 25 to 100
11 | CCC(CC)CN1CCC2(CC[C@H](NC(C)=O)c3ccccc32)CC1 [compound 73] | < 2 | 25 to 100 | > 5 | < 25 | > 5 | < 25 | < 2 | 25 to 100 | – | – | – | – | – | – | – | –
12 | CC(=O)N1CCC[C@H]1C(=O)N[C@H]1CCC2(CCN(CCC(C)(C)C)CC2)c2ccccc21 [compound 194] | – | – | – | – | – | – | – | – | +++ (activity was measured to be less than 2.0 μM) | 25 to 100 | + (activity was measured to be greater than 5.0 μM) | < 25 | + (activity was measured to be greater than 5.0 μM) | < 25 | +++ (activity was measured to be less than 2.0 μM) | 25 to 100
13 | CC(C)(C)CCN1CCC2(CC[C@H](NS(C)(=O)=O)c3ccccc32)CC1 [compound 1] | < 2 | 25 to 100 | 2 to 5 | < 25 | > 5 | < 25 | < 2 | 25 to 100 | – | – | – | – | – | – | – | –
14 | CC(=O)N[C@H]1CCC2(CCN(CCC(C)(C)C)CC2)c2cc(F)ccc21 [compound 177] | < 2 | 25 to 100 | < 2 | 25 to 100 | > 5 | < 25 | < 2 | 25 to 100 | – | – | – | – | – | – | – | –
15 | CC(C)(C)CCN1CCC2(CC[C@@H](NC(=O)C3CC3)c3ccc(F)cc32)CC1 [compound 214] | – | – | – | – | – | – | – | – | +++ (activity was measured to be less than 2.0 μM) | 25 to 100 | +++ (activity was measured to be less than 2.0 μM) | < 25 | + (activity was measured to be greater than 5.0 μM) | < 25 | +++ (activity was measured to be less than 2.0 μM) | 25 to 100
16 | CC(C)[C@@H](C(=O)N[C@H]1CCC2(CCN(CCC(C)(C)C)CC2)c2ccccc21)N1CCCC1=O [compound 167] | < 2 | 25 to 100 | > 5 | < 25 | > 5 | < 25 | < 2 | 25 to 100 | – | – | – | – | – | – | – | –
17 | CC(C)NC(=O)C1CCC2(CCN(CCC(C)(C)C)CC2)c2ccccc21 (stereo not shown) [compound 35] | > 5 | < 25 | > 5 | < 25 | > 5 | < 25 | < 2 | 25 to 100 | – | – | – | – | – | – | – | –
18 | CC(C)CCN1CCC2(CC[C@H](NS(C)(=O)=O)c3ccccc32)CC1 [compound 80] | < 2 | 25 to 100 | > 5 | < 25 | > 5 | < 25 | < 2 | 25 to 100 | – | – | – | – | – | – | – | –
19 | CC(C)(C)CN1CCC2(CC1)CC(C(=O)O)c1ccccc12 (stereo not shown) [compound 246] | – | – | – | – | – | – | – | – | + (activity was measured to be greater than 5.0 μM) | < 25 | + (activity was measured to be greater than 5.0 μM) | < 25 | + (activity was measured to be greater than 5.0 μM) | < 25 | + (activity was measured to be greater than 5.0 μM) | < 25

Source: patent US8003660B2, “Modulators of muscarinic receptors” (Vertex Pharmaceuticals Incorporated, priority 2006, dated 2011)
